Source: patent US10662445B2, “Process for the production of bio-butanol by fermentation of glycosidic waste matter” (priority 2018, dated 2020)

What was measured:
[1] = Organic-solvent extraction of microbial inhibitors from an agro-waste hydrolysate mimic; type: physicochemical; conditions: for HMF remaining after extraction: standard 2.723 g/L; for Furfural remaining after extraction: standard 2.956 g/L; for TRS (total reducing sugar) after extraction: standard 52.00 g/L; for Inhibitor extraction, phase separation by centrifugal force / Inhibitor extraction, phase separation by separating funnel: solvent bis-(2-ethylhexyl) sebacate
From the text: Media composition was designed according to the inhibitory compound limit concentration reported in the literature for bio-butanol producing solventogenic Clostridia (Baral et al. Microbial inhibitors: formation and effects on acetone-butanol-ethanol fermentation of lignocellulosic biomass. Applied microbiology and biotechnology, Vol. 98(22), 2014: 9151-9172; Qureshi et al. Production of butanol (a biofuel) from agricultural residues: Part I—Use of barley straw hydrolysate. Biomass and bioenergy, Vol. 34(4), 2010: 559-565). Different volume ratio of the hydrolysate mimic and organic solvents, such as (5:1), (3:1), (2:1), (1:1) and (1:2) (vaqueous:vorganic) were tried in order to minimize extractant expenditure. Organic and aqueous phase mixing was carried out by a propeller impeller. Rotation rate (100, 200, 250, 300 and 400 rpm) and operation-time (15, 30, 45, 60 and 90 min) were tested at room temperature (25° C.). A comparative study between settling through separating funnel vs. centrifugal force assisted separation was also made to guarantee an optimal recovery of the broth phase.
A complex mixture of several reduced sugar compounds (e.g. as glucose, fructose, and xylose) and microbial inhibitors (furfural, HMF, acetic acid, levulinic acid, vanillin, vanillic acid, feluric acid and syringaldehyde) were produced during the pretreatment step (hydrolysis). In order to analyse these compounds, liquid samples were collected and analyzed using liquid chromatography-mass spectrometry (LC-MS) and liquid chromatography-tandem mass spectrometry (LC/MS-MS) equipped with a ZORBAX Carbohydrate column (5 μm, 150×4.6 mm ID column) (Agilent Technologies, USA) with D6 glucose as the internal standard and a Biobasic-18 column (5 μm, 250×4.6 mm ID) (Agilent Technologies, USA) with phenylethanol-D5 as the internal standard. […] Methanol water (8:2) and acetonitrile water (8.5:1.5) were used to dilute the sample before inhibitor and carbohydrate analysis. […]

[2] = tested on: Clostridium beijerinckii NRRL B-466 (CB); assay: Bio-compatibility (solvent toxicity) batch ABE fermentation, CB
Protocol: (§1) Clostridium acetobutylicum NRRL B-582 (ATCC-824) (CA) and Clostridium beijerinckii NRRL B-466(CB) were considered for current investigation to produce bio-butanol from different brewery industry wastes. They were kindly provided by Agricultural Research Station, USDA (USA). The microorganisms were grown and maintained in peptone-yeast extract-glucose (PYG) media under anaerobic condition (vegetative growth) at 37±1° C. and 150 rpm for 24 h and 17 h, respectively, before being transferred into the fermentation medium. The medium (g L^−1) comprised: glucose (10); yeast extract (10); peptone (5); tryptone (5); cysteine-HCl (0.5); K2HPO4 (2.04); KH2PO4 (0.04); FeSO4*7H2O (1.1×10^−3); CaCl2 (8×10^−3); MgSO4*7H2O (0.0192); NaCl (0.08); and NaHCO3 (0.4). 125 mL serum bottles (working volume 50 mL) were used for both butanol production and inoculum development (Maiti et al., January 2016, Maiti et al., August 2015). Anaerobic conditions were maintained within the bottle by sparging N2 for 10 minutes and immediately sealed by an aluminum crimp seal containing silicone septum (Fisher scientific, Canada) by means of a hand operated crimper (E-Z Crimper™, VWR, Ontario, Canada). Prior to culture development, the medium was sterilized for 20 min at 121±1° C. About 10% (v/v) (dry cell weight […]) of microbial culture in its exponential phase of growth (OD600nm=1.3-1.5) was used as inoculum for all the experiments conducted in this investigation.
(§2) Set-1, set-4 and set-5 were included as control-1, control-2 and control-3 respectively. All the experiments were carried out in P2 nutrient media as described later in batch fermentation section.
(§3) Batch fermentation was performed in 125 mL serum vials (working volume of 50 mL) at pH 6.7±0.1. The P2 medium was sterilized at 121±1° C. for 20 min. Prior to fermentation, anaerobic conditions for each bottle were maintained by sparging the medium with N2 for 10 minutes and immediately closing with an aluminum crimp seal containing silicon septum (Fisher scientific, Canada) by means of a hand-operated crimper (E-Z Crimper™, VWR, Ontario, Canada). A modified P2 medium, with the following composition, was used for fermentation experiments: Buffer→KH2PO450 g/L, K2HPO450 g/L, ammonium acetate 220 g/L; Minerals→MgSO4*7H2O 20 g/L, MnSO4*H2O 1 g/L, FeSO4*7H2O 1 g/L, NaCl 1 g/L; Vitamins→thiamin 0.1 g/L, biotin 0.001 g/L). Since brewery industry wastes were already enriched with yeast protein, no additional yeast protein nor peptone were supplemented.
(§4) The fermentation was initiated by inoculating the P2 medium with the seed cultures at a ratio of 10% (v:v). […] Fermentation experiments were performed at 37±1° C. with shaking at 150 rpm for 72 h in duplicates. 1 mL of culture broth from each batch assay was used for metabolite analysis. Data described here present average values from duplicate runs for duplicate samples.
(§5) To determine the different metabolites produced during ABE fermentation (i.e. butanol, ethanol, acetone, butyric acid, and acetic acid) liquid samples from each fermentation broth were collected and analyzed using gas chromatography (GC) (GC7890B, Agilent Technologies, USA) equipped with a FID detector and a HP-INNOWax™ column (30 m, 0.25 mm ID, 0.25 μm df). Isobutanol was used as the internal standard. Before injecting the sample (1 mL) in the GC for products analysis, the sample was centrifuged for 5 minutes at 7650×g and the supernatant was filtered by 0.45 μm syringe filter. The GC conditions comprised: helium carrier gas at a flow rate of 1 mL/min with a temperature ramp from the initial temperature of 50° C. to 150° C.

[3] = tested on: Clostridium acetobutylicum NRRL B-582 (ATCC-824) (CA); assay: Bio-compatibility (solvent toxicity) batch ABE fermentation, CA; conditions: CA
Protocol: as §1, §2, §3, §4, §5

[4] = Extraction 1, Vaqueous:Vorganic = 2:1, hydrolysate mimic
[5] = Extraction 1, Vaqueous:Vorganic = 2:1, hydrolysate mimic, standard 565.9 mg/L
[6] = Extraction 2, Vaqueous:Vorganic = 2:1, hydrolysate mimic
[7] = Extraction 3, Vaqueous:Vorganic = 2:1, hydrolysate mimic
[8] = Extraction 4, Vaqueous:Vorganic = 2:1, hydrolysate mimic
[9] = first stage, ratio 2:1, hydrolysate mimic
[10] = (5-15%) solvent supplemented to 52 g/L glucose
[11] = Control-1 (52 g/L glucose) + (5-15)% solvent, 72 h, P2 medium
[12] = homogenizer rotational speed 100 rpm
[13] = homogenizer rotational speed 200 rpm
[14] = homogenizer rotational speed 250 rpm
[15] = homogenizer rotational speed 300 rpm
[16] = homogenizer rotational speed 400 rpm

Work on `CCCCCCCCCC(C)=O` [2-undecanone] yielded a Ferulic acid removal [1, 4] of 99%, a Furfural removal [1, 4] of 87% and an HMF removal [1, 4] of 90%. For the same molecule, the Syringaldehyde removal [1, 4] was 97%, the TRS removal [1, 4] was 0% and the Vanillic acid removal [1, 4] was 95%. For the same molecule, the Vanillin removal [1, 4] was 98%, the “Syringaldehyde remaining after extraction” value ([1]; Extraction 1, Vaqueous:Vorganic = 2:1, hydrolysate mimic, standard 300.2 mg/L) was 7.6 mg/L and the “Ferulic acid remaining after extraction” value ([1]; Extraction 1, Vaqueous:Vorganic = 2:1, hydrolysate mimic, standard 485.6 mg/L) was 0.7 mg/L. The “Vanillic acid remaining after extraction” value [1, 5] was 9.8 mg/L, the “Vanillin remaining after extraction” value [1, 5] was 10.3 mg/L and the “HMF remaining after extraction” value [1, 4] was 0.267 g/L. The “Furfural remaining after extraction” value [1, 4] was 0.392 g/L, the “TRS (total reducing sugar) after extraction” value (“TRS (total reducing sugar)” for short) [1, 4] was 52.00 g/L and the Ferulic acid removal [1, 6] was 100%. It also gave a Furfural removal [1, 6] of 97%, an HMF removal [1, 6] of 97% and a Syringaldehyde removal [1, 6] of 100%. For the same molecule, the TRS removal [1, 6] was 0%, the Vanillic acid removal [1, 6] was 100% and the Vanillin removal [1, 6] was 100%. The “HMF remaining after extraction” value [1, 6] was 0.077 g/L, the “Furfural remaining after extraction” value [1, 6] was 0.082 g/L and the “TRS (total reducing sugar)” value [1, 6] was 52.00 g/L. It also gave a Ferulic acid removal [1, 7] of 100%, a Furfural removal [1, 7] of 100% and an HMF removal [1, 7] of 100%. It also gave a Syringaldehyde removal [1, 7] of 100%, a TRS removal [1, 7] of 0% and a Vanillic acid removal [1, 7] of 100%. For the same molecule, the Vanillin removal [1, 7] was 100%, the “TRS (total reducing sugar)” value [1, 7] was 52.00 g/L and the Ferulic acid removal [1, 8] was 100%. For the same molecule, the Furfural removal [1, 8] was 100%, the HMF removal [1, 8] was 100% and the Syringaldehyde removal [1, 8] was 100%. For the same molecule, the TRS removal [1, 8] was 0%, the Vanillic acid removal [1, 8] was 100% and the Vanillin removal [1, 8] was 100%. The “TRS (total reducing sugar)” value [1, 8] was 52.00 g/L, the “Extraction efficiency for phenolic compounds” value [1, 9] was “higher than 95%” and the “Extraction efficiency towards furan derivatives” value [1, 9] was 87-90%. For the same molecule, the “Reduction of bio-butanol generation in comparison with set-1” value [2, 10] was 67%, the ABE [2, 11] was 4.28 ± 0.4 g/L and the Butanol [2, 11] was 3.11 ± 0.3 g/L. For the same molecule, the “Reduction of bio-butanol generation in comparison with set-1” value [3, 10] was 70%, the ABE [3, 11] was 3.82 ± 0.2 g/L and the Butanol [3, 11] was 2.77 ± 0.12 g/L.
With `O=Cc1ccco1` [Furfural, furfural] the “Inhibitor extraction, phase separation by centrifugal force” value [1, 12] was 68%, the “Inhibitor extraction, phase separation by separating funnel” value [1, 12] was 65% and the “Inhibitor extraction, phase separation by centrifugal force” value [1, 13] was 69%. The “Inhibitor extraction, phase separation by separating funnel” value [1, 13] was 68%, the “Inhibitor extraction, phase separation by centrifugal force” value [1, 14] was 78% and the “Inhibitor extraction, phase separation by separating funnel” value [1, 14] was 75%. For the same molecule, the “Inhibitor extraction, phase separation by centrifugal force” value [1, 15] was 78%, the “Inhibitor extraction, phase separation by separating funnel” value [1, 15] was 76% and the “Inhibitor extraction, phase separation by centrifugal force” value [1, 16] was 80%. The “Inhibitor extraction, phase separation by separating funnel” value [1, 16] was 78%.
In the case of `O=Cc1ccc(CO)o1` [HMF, hydroxymethyl furfural], the “Inhibitor extraction, phase separation by centrifugal force” value [1, 12] is reported as 71%, the “Inhibitor extraction, phase separation by separating funnel” value [1, 12] is reported as 71% and the “Inhibitor extraction, phase separation by centrifugal force” value [1, 13] is reported as 74%. The “Inhibitor extraction, phase separation by separating funnel” value [1, 13] was 73%, the “Inhibitor extraction, phase separation by centrifugal force” value [1, 14] was 79% and the “Inhibitor extraction, phase separation by separating funnel” value [1, 14] was 78%. For the same molecule, the “Inhibitor extraction, phase separation by centrifugal force” value [1, 15] was 82%, the “Inhibitor extraction, phase separation by separating funnel” value [1, 15] was 80% and the “Inhibitor extraction, phase separation by centrifugal force” value [1, 16] was 84%. For the same molecule, the “Inhibitor extraction, phase separation by separating funnel” value [1, 16] was 80%.
In the case of `COc1cc(C=O)ccc1O` [Vanillin, vanillin], the “Inhibitor extraction, phase separation by centrifugal force” value [1, 12] is reported as 95%, the “Inhibitor extraction, phase separation by separating funnel” value [1, 12] is reported as 93% and the “Inhibitor extraction, phase separation by centrifugal force” value [1, 13] is reported as 95%. The “Inhibitor extraction, phase separation by separating funnel” value [1, 13] was 93%, the “Inhibitor extraction, phase separation by centrifugal force” value [1, 14] was 97% and the “Inhibitor extraction, phase separation by separating funnel” value [1, 14] was 95%. For the same molecule, the “Inhibitor extraction, phase separation by centrifugal force” value [1, 15] was 97%, the “Inhibitor extraction, phase separation by separating funnel” value [1, 15] was 97% and the “Inhibitor extraction, phase separation by centrifugal force” value [1, 16] was 96%. For the same molecule, the “Inhibitor extraction, phase separation by separating funnel” value [1, 16] was 97%.
